Substitutions are numbered along the chain they refer to.
Legend:
SUCR1 = target: T1, SUCR1 (Homo sapiens, UniProt Q9BXA5); assay: Calcium mobilization assay, wild-type SUCR1 in HEK293 stably expressing Gα16; assay type: cell-based; conditions: for activation of SUCR1: in words;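 as to Emax: percent of the maximal response to succinate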
T1 construct: The full-length human SUCR1 and mutations were fused after the HA signal peptide and Flag tag; HA signal peptide (N); Flag (N); expressed in transfected cells; host or cells: HEK293 stably expressing Gα16 (pcDNA6.0, transient electroporation)
T1 sequence (Q9BXA5 1-334): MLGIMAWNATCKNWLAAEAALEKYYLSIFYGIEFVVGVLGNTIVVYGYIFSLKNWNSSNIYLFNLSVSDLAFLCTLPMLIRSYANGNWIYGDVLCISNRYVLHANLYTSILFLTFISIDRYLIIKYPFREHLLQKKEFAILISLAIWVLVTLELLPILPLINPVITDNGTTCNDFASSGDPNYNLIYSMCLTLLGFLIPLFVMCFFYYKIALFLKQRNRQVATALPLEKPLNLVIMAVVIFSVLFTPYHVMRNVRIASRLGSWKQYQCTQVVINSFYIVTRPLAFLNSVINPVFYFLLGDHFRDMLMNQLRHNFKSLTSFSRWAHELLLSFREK
Protocol: (§7) The full-length human SUCR1 and mutations were fused after the HA signal peptide and Flag tag. The constructs were cloned into pcDNA6.0 vector for HEK293 system.
(§8) HEK293 cells were obtained from ATCC (Manassas, VA, USA) and cultured in DMEM supplemented with 10% (v/v) FBS, 100 mg/L penicillin, and 100 mg/L streptomycin in 5% CO2 at 37 °C. For transient transfection, ~2.5 × 10^6 cells were mixed with 2 µg plasmids in 200 µL transfection buffer, and electroporation was carried out with a Scientz-2C electroporation apparatus (Scientz Biotech, Ningbo, China). The experiments were carried out 24 h after transfection. HEK293 cell lines stably expressing Gα16 were constructed by our laboratory.
(§9) For OXGR1, plasmids were transfected into HEK293 (other receptors were transfected into HEK293 stably expressing Gα16) and seeded at a density of 4 × 10^4 per well into 96-well culture plates and incubated for 24 h at 37 °C in 5% CO2. The next day, Cells were incubated with 2 μM/L Fluo-4 AM in HBSS supplemented with 5.6 mM/L D-glucose and 250 μM/L sulfinpyrazone at 37 °C for 45 min. […] Three independent measurements were repeated, i.e., three different transfections, with three technical replicates performed for each experiment. EC50 and Emax values for each curve were calculated by Prism 8.0 software (GraphPad Software).

OXGR1 [1] = target: T2, OXGR1 (Homo sapiens, UniProt Q96P68); assay: cAMP assay, Gi pathway (OXGR1-Gi-cAMP Assay); assay type: cell-based; set-up: The full-length human OXGR1 and mutations were fused after the HA signal peptide and Flag tag; HA signal peptide (N); Flag (N); expressed in transfected cells; host or cells: HEK293 (pcDNA3.0, transient electroporation); conditions: OXGR1 WT
Protocol: (§1) In brief, cells expressing OXGR1 were seeded in a plate at a density of 1 × 10^6 cells/well and cultured overnight. After 24 h culture, cells were harvested and re-suspended in DMEM containing 500 µM IBMX at a density of 2 × 10^5 cells/mL. Then, cells were plated onto 384-well assay plates at a density of 1000 cells/5 µL/well. Another 5 µL buffer containing compounds at various concentrations was added to the cells, and the incubation lasted for 30 min at 37 °C. Intracellular cAMP level was tested by a LANCE Ultra cAMP kit (PerkinElmer, TRF0264) and EnVision multiplate reader according to the manufacturer’s instructions.

OXGR1 [2] = target: T3, OXGR1 (Homo sapiens, UniProt Q96P68, L299P); assay: Immunofluorescence assay of OXGR1 internalization; assay type: cell-based; conditions: 300 μM AKG, 0 or 30 min at 37°C
T3 construct: The full-length human OXGR1 and mutations were fused after the HA signal peptide and Flag tag; HA; expressed in transfected cells; host or cells: HEK293, transient
Protocol: (§2) Figure. R2 | Effect of L2997x50P mutant on activation and internalization of OXGR1. […]
(§3) responses. Responses were normalized to 100% for wild-type. Data are mean ± S.E.M. from three independent experiments (n = 3), with three technical replicates performed for each […]
(§4) experiment. […] HEK293 cells transiently […]
(§5) transfected with HA-tagged OXGR1 -WT or L299 7x50P mutant, were incubated with 300 μM […]
(§6) OXGR1 were stained with anti-HA (green). Cell nuclei were (1 picture or pasted object on this page, not shown here)

OXGR1 [3] = target: T2, OXGR1; assay: cAMP assay, Gs pathway (OXGR1-Gs-cAMP-Assay); assay type: cell-based; set-up: The full-length human OXGR1 and mutations were fused after the HA signal peptide and Flag tag; HA signal peptide (N); Flag (N); expressed in transfected cells; host or cells: HEK293 (pcDNA3.0, transient electroporation); conditions: OXGR1 WT
Protocol: as §1

OXGR1 [4] = target: T2, OXGR1; assay: Immunofluorescence assay of OXGR1 internalization; assay type: cell-based; set-up: The full-length human OXGR1 and mutations were fused after the HA signal peptide and Flag tag; HA; expressed in transfected cells; host or cells: HEK293, transient; conditions: 300 μM AKG, 0 or 30 min at 37°C
Protocol: as §2, §3, §4, §5, §6

HCAR2 = target: T4, HCAR2 (Homo sapiens, UniProt Q8TDS4); assay: Calcium mobilization assay, HCAR2 in HEK293 stably expressing Gα16; assay type: cell-based; conditions: in words; related receptor
T4 construct: expressed in transfected cells; host or cells: HEK293 stably expressing Gα16
T4 sequence (Q8TDS4 whole entry): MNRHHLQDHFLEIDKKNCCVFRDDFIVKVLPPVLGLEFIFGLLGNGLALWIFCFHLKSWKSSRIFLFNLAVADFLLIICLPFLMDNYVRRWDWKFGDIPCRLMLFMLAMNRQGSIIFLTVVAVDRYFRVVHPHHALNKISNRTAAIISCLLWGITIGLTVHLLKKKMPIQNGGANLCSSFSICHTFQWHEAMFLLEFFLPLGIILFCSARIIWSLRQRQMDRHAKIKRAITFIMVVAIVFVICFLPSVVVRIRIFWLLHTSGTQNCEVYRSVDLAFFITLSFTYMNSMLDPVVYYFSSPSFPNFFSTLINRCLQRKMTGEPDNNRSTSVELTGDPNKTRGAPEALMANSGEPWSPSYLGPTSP
Protocol: as §8, §9

[5] = test system: SUCR1 mutants (variant named in the endpoint); assay: Calcium mobilization assay, SUCR1 mutants in HEK293 stably expressing Gα16; assay type: cell-based, human; conditions: in words
Protocol: as §7, §8, §9

HCAR1 = target: T5, HCAR1 (Homo sapiens, UniProt Q9BXC0); assay: Calcium mobilization assay, HCAR1 in HEK293 stably expressing Gα16; assay type: cell-based; conditions: in words; related receptor
T5 construct: expressed in transfected cells; host or cells: HEK293 stably expressing Gα16
T5 sequence (Q9BXC0 whole entry, species assumed): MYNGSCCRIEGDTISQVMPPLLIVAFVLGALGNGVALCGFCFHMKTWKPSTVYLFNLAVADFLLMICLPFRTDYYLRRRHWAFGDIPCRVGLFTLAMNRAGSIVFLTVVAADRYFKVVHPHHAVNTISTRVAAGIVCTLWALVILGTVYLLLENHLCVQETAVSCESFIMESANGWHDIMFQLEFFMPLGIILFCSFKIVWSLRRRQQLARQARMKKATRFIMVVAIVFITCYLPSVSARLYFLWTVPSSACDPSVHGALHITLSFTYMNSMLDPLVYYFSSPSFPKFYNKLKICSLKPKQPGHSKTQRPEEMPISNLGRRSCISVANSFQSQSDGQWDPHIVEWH
Protocol: as §8, §9

[6] = target: T6, SUCR1 mutants (variant named in the endpoint) (Homo sapiens, UniProt Q9BXA5, F285A/L102F/Y248F); assay: Calcium mobilization assay, SUCR1 mutants in HEK293 stably expressing Gα16; assay type: cell-based; conditions: SUCR1 L102F-F285A-Y248F
T6 construct: The full-length human SUCR1 and mutations were fused after the HA signal peptide and Flag tag; HA signal peptide (N); Flag (N); expressed in transfected cells; host or cells: HEK293 stably expressing Gα16 (pcDNA6.0, transient electroporation)
T6 sequence (Q9BXA5 1-334 L102F/Y248F/F285A): T1 sequence (Q9BXA5 1-334) with L102F, Y248F, F285A
Protocol: as §7, §8, §9

SMILES | Emax (SUCR1; HEK293) [%] | activation of SUCR1 (SUCR1) | activation of Gi signaling (OXGR1 [1]) | internalization of OXGR1 L299P mutant (OXGR1 [2]) | activation of Gs signaling (OXGR1 [3]) | internalization of WT-OXGR1 (OXGR1 [4]) | activation of HCAR2 (HCAR2) | ITA activation of SUCR1-L102F, SUCR1-L102F-F285A, SUCR1-L102F-F175L [5] | activation of HCAR1 (HCAR1) | EC50 [6] [µM]
O=C(O)CCC(=O)C(=O)O [AKG, α-ketoglutarate] | 3.5 ± 3 | no cross-reactivity | no detectable activation | remains at the plasma membrane | no detectable activation | internalizes |  |  |  | 
C=C(CC(=O)O)C(=O)O [ITA, itaconate] |  | only minimal activation | no detectable activation |  | no detectable activation |  | no detectable activation | further enhanced ITA activation in both potency and efficiency | no detectable activation | 
O=C(O)CCC(=O)O [SUC, succinate] |  |  |  |  |  |  |  |  |  | 2200 ± 220
